From patent US8507656B2, “Stabilized angiopoietin-2 antibodies and uses thereof” (MedImmune Limited, priority 2008, dated 2013) come the findings set out here.

Assay [1] has as its system LoVo xenograft tumors. It counts as in vivo. Conditions: 3.19.3 10 mg/kg 2×wk i.p., 5FU 100 mg/kg/week i.p., combination of both. As for the experimental part: The anti-tumor activity of 3.19.3 was evaluated in combination with 5-Fluoruracil (5FU) in the LoVo xenograft model of colorectal cancer. LoVo cells were cultured in flasks as routine until the cells reached sub-confluence. Cell suspensions containing approximately 3×10E6 cells were injected subcutaneously into the flank of female Swiss nude mice. When the tumor volume reached 200 mm^3, the mice were randomized in treatment groups of 8-10 mice and the treatments were initiated. 3.19.3 (10 mg/kg) in saline was injected intraperitoneally, twice per week for 2 weeks and 5-Flurouracil (100 mg/kg) was administered by intraperitoneal administration following a weekly schedule. The dimensions of each tumor and body weights were measured at least twice per week. The volume of the tumor was calculated as: Volume=Length×(Width)×0.5 (cm^3).

Assay [2] deals with MCF7 xenograft tumors. Briefly: MCF7 breast cancer xenograft model. The class given is in vivo. The following applies: 3.19.3 10 mg/kg 2×wk i.p., AZD6495 30 mg/kg bid p.o. 18 d, combination of both. As for the experimental part: The anti-tumor activity of the anti-Angiopoietin-2 monoclonal antibody 3.19.3 in combination with the small molecule CSF1R tyrosine kinase inhibitor AZD6495 (4-[(2,4-difluorophenyl)amino]-7-ethoxy-6-(4-methylpiperazin-1-yl)quinoline-3-carboxamide) was evaluated in a xenograft model of human breast carcinoma using the MCF7 cell line (FIG. 4a).
Materials and Methods: Breast carcinoma MCF7 cells were cultured in flasks as routine until the cells reach sub-confluence. Immunodeficient 7-10 week old male NCr-nude mice were subcutaneously implanted with 8×10^6 MCF7 cells suspended 1:1 in Matrigel in the right flank. […]
The mice were then randomized into cohorts containing 15 mice once the tumors reached approximately 100 mm^3. […] The body weights of each animal, and the dimensions of each tumor were measured twice per week. The volume of the tumor was calculated as: Volume=Length×(Width)^2×0.5 cm^3, or by bilateral Vernier caliper measurement and, taking length to be the longest diameter across the tumor and width the corresponding perpendicular, calculated using the formula (π/6)×(length×width)×√(length×width). Growth inhibition from the start of treatment was assessed by comparison of the differences in tumor volume between control and treated groups.

Assay [3] deals with collagen-induced arthritis. Briefly: Collagen-induced arthritis (CIA), dose response (Example 11). It counts as in vivo, male DBA/1 mice.
Where [4] appears, read: 0.1 mg/kg ip every 3 days for 14 days from disease onset.
[5] abbreviates: 1 mg/kg ip every 3 days for 14 days from disease onset.
Where [6] appears, read: 10 mg/kg ip every 3 days for 14 days from disease onset.

Entries after “also recorded” stand apart in the source; their conditions may differ. Marks after values point to notes of the source that are not given here.

Regarding “3.19.3: fully human anti-Ang-2 monoclonal antibody, wild type control; light chain SEQ ID No. 1, heavy chain SEQ ID No. 2 [Antibody 3.19.3]”, the “% tumor growth inhibition” value in assay [1] is given as 59%; in assay [2], 62%. Besides, the “% inhibition (AUC of Clinical Score)” value in assay [3] (setting [4]) is 16% +/− 13%; in assay [3] (setting [5]), 53% +/− 7%*; in assay [3] (setting [6]) it was 44% +/− 9%*. Moreover, the “AUC of Clinical Score” value in assay [3] (setting [4]) is reported as 99 +/− 15; in assay [3] (setting [5]) it was 46 +/− 9; in assay [3] (setting [6]), 67 +/− 11. Further, the “CD31+ microvessel density in synovium (in words)” value is on record as “no effect” in assay [3] (3.19.3 0.1 mg/kg); “significant reduction in microvessel density; also recorded: significant reduction in the presence of microvessels” in assay [3] (3.19.3 at 1 and 10 mg/kg, prednisolone 3 mg/kg). The “histopathological evaluation: synovial hyperplasia, synovitis, pannus, synovial fibrosis, periostitis (in words)” value in assay [3] (3.19.3 0.1, 1 and 10 mg/kg, isotype control vs PBS vehicle) was “dose-dependent anti-arthritic effect”. Also, the “clinical signs of disease progression (arthritic score) (in words)” value in assay [3] (doses of 1 and 10 mg/kg) is listed as “significant reduction”.
